In patent US20130296330A1, “MACROCYCLIC INTEGRASE INHIBITORS FOR USE IN THE TREATMENT OF FELINE IMMUNODEFICIENCY VIRUS” (ELANCO ANIMAL HEALTH IRELAND LIMITED, priority 2011, published 2013):

Legend:
FIV strain Utrecht-113 = test: Inhibitory activity on FIV replication wild type, CRFK cells (FIV p24 ELISA); type: cell-based; conditions: Feline immunodeficiency virus, 144 h, FIV strain Utrecht-113, 6 days, read-out: EC50 (concentration required to reduce antigen production by 50%)
Protocol: (§1) The anti-FIV activity of the compounds was tested in primary feline thymocytes isolated form specific pathogen free cats, and in Crandell feline kidney (CRFK) cells.
Crandell Feline Kidney (CRFK) cells were maintained in DMEM (Dulbecco's Modified Eagle's Medium (Lonza) supplemented with, 10% inactivated fetal calf serum, antibiotics (100 IU/ml penicillin and 100 μg/ml streptomycin). Cells were seeded into a 96 well plate (5×10^4 cells per well) and pre-incubated with four-fold dilutions of the antiviral compound for 1 hours. The CrFK cells were washed with PBS DEAE 50 mg/l, inoculated with 100 TCID50 of FIV strain Utrecht-113 in the presence of the different concentrations of compound and subsequently incubated for 2 hours in a humidified incubator with a 5% CO2 atmosphere at 37° C. After 2 hours cells were washed twice in DMEM medium and new medium containing the different concentrations of compound were added. After incubation for 6 days the supernatant was harvested and the amount of virus within the supernatant determined using a FIV p24 ELISA. The 50% effective concentration (EC50) was defined as the concentration of the compound required to reduce the antigen production by 50% compared to untreated controls.

[1] = Cellular cytotoxic activity, mock-infected CRFK cells, MTT assay; type: cell-based, feline; conditions: cat, read-out: CC50 (50% cytotoxic concentration)
Protocol: (§2) The cytotoxicity of the compounds was determined in parallel to the experiments under assay 1 on mock-infected feline thymocytes respectively CRFK cells cultured in the presence or absence of different concentrations of the compound.
After 6 days of incubation cell viability of the CRFK cells was measured by using a colorimetric MTT assay. A solution of 3-(4,5-dimethylthiazol-2-yl)-2,5-diphenyltetrazolium bromide (MTT) in PBS at a final concentration of 0.5 mg/ml was added to each well. After 2 hours incubation at 37 C and 5% CO2, the medium containing the MTT was removed and the cells were lysed by addition of 200 μl DMSO to each well. Following 10 minutes incubation at room temperature on a rocking plate, the optical density (OD) values at […] were determined. The compound concentration that decreased the viability of 50% of the cells was defined as the 50% cytotoxic concentration (CC50).

FIV strain Thymo-113 = test: Inhibitory activity on FIV replication wild type, feline thymocytes (FIV p24 ELISA); type: cell-based; conditions: Feline immunodeficiency virus, Thymocyte, 144 h, primary feline thymocytes, FIV strain Thymo-113, 6 days, read-out: EC50 (concentration required to reduce antigen production by 50%)
Protocol: as §1
Feline thymocytes were maintained in complete Iscove's Modified Medium (Iscoves medium supplemented with GlutamaxI (Invitrogen/Gibco BRL), 10% inactivated fetal calf serum, antibiotics (100 IU/ml penicillin and 100 μg/ml streptomycin) 2-Mercapto-ethanol (50 μM) and 100 IU/ml human recombinant IL-2 (Chiron). Cells were seeded into a 96 well plate (5×10^4 cells per well) and pre-incubated with four-fold dilutions of the antiviral compound. Plates were incubated for 1 hour in a humidified incubator with a 5% CO2 atmosphere at 37° C. Subsequently, cells were inoculated with 100 TCID50 of FIV strain Thymo-113 in the presence of the different concentrations of compound. After 2 hours cells were washed twice in Iscove's medium and new medium containing the different concentrations of compound were added. After incubation for 6 days the supernatant was harvested and the amount of virus within the supernatant determined using a FIV p24 ELISA. The 50% effective concentration (EC50) was defined as the concentration of the compound required to reduce the antigen production by 50% compared to untreated controls.

[2] = Cellular cytotoxic activity, mock-infected feline thymocytes, trypan blue exclusion staining; type: cell-based; conditions: cat, read-out: CC50 (50% cytotoxic concentration)
Protocol: as §2
Cytotoxicity on feline thymocytes was determined by trypan blue exclusion staining whereby the CC50 for compound (6) was measured as >10 nM.

With `CN1c2nc(c(O)c3ncccc23)C(=O)NCc2ccc(F)cc2C(=O)NCCCCCS1(=O)=O` [Compound 6] the EC50 (FIV strain Utrecht-113) was 20 nM, the CC50 at 6 days [1] was greater than 10 nM and the EC50 (FIV strain Thymo-113) was 20 nM. It also gave a CC50 [2] greater than 10 nM.
